Assay results from PubChem BioAssay AID264 (DTP/NCI, 2004).
Where “and” joins values, the source holds several entries; their conditions need not be identical. Equal values may be shown once. Inconclusive results are not listed.

Tested on: nude mice, LX-1 lung xenograft intrarenal, tumor weight T/C
Test: NCI In Vivo Anticancer Drug Screen. Data for tumor model Human Lung LX-1 Xenograft (intrarenal inoculation) in NU/NU Swiss (nude) mice
Settings: endpoint: mean tumor weight change, higher = larger tumour
Method in brief: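 In vivo, transplantable tumor; compound vs vehicle arms; tumor size measured; value = T/C.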

[1] = dose: 300.0 mg/kg/injection, schedule: Q04DX003 (sc), vehicle: saline
[2] = dose: 600.0 mg/kg/injection, schedule: Q04DX003 (sc), vehicle: saline
[3] = dose: 1200.0 mg/kg/injection, schedule: Q04DX003 (sc), vehicle: saline
[4] = dose: 2400.0 mg/kg/injection, schedule: Q04DX003 (sc), vehicle: saline
[5] = dose: 75.0 mg/kg/injection, schedule: Q04DX003 (sc), vehicle: saline with Tween-80
[6] = dose: 150.0 mg/kg/injection, schedule: Q04DX003 (sc), vehicle: saline with Tween-80
[7] = dose: 37.5 mg/kg/injection, schedule: Q04DX003 (sc), vehicle: saline with Tween-80
[8] = dose: 2.0 mg/kg/injection, schedule: Q01DX010 (sc), vehicle: saline
[9] = dose: 4.0 mg/kg/injection, schedule: Q01DX010 (sc), vehicle: saline
[10] = dose: 16.0 mg/kg/injection, schedule: Q01DX010 (sc), vehicle: saline
[11] = dose: 32.0 mg/kg/injection, schedule: Q01DX010 (sc), vehicle: saline
[12] = dose: 300.0 mg/kg/injection, schedule: Q04DX003 (sc), vehicle: Klucel (hydroxypropylcellulose) (HPC)
[13] = dose: 600.0 mg/kg/injection, schedule: Q04DX003 (sc), vehicle: Klucel (hydroxypropylcellulose) (HPC)
[14] = dose: 1200.0 mg/kg/injection, schedule: Q04DX003 (sc), vehicle: Klucel (hydroxypropylcellulose) (HPC)
[15] = dose: 2400.0 mg/kg/injection, schedule: Q04DX003 (sc), vehicle: Klucel (hydroxypropylcellulose) (HPC)
[16] = dose: 100.0 mg/kg/injection, schedule: Q01DX010 (sc), vehicle: Klucel (hydroxypropylcellulose) (HPC)
[17] = dose: 25.0 mg/kg/injection, schedule: Q04DX003 (sc), vehicle: Klucel (hydroxypropylcellulose) (HPC)
[18] = dose: 50.0 mg/kg/injection, schedule: Q04DX003 (sc), vehicle: Klucel (hydroxypropylcellulose) (HPC)
[19] = dose: 100.0 mg/kg/injection, schedule: Q04DX003 (sc), vehicle: Klucel (hydroxypropylcellulose) (HPC)

## CC[N](CC)[Ge]([CH2]C)[CH2]C.CC[N](CC)[Ge]([CH2]C)[CH2]C
dose: 12.5 mg/kg/injection, schedule: Q01DX010 (sc), vehicle: suspension in saline
  T/C: 67 % of control
dose: 25.0 mg/kg/injection, schedule: Q01DX010 (sc), vehicle: suspension in saline
  T/C: 89 % of control
dose: 50.0 mg/kg/injection, schedule: Q01DX010 (sc), vehicle: suspension in saline
  T/C: 77 % of control

## O=c1ncccn1[C@@H]1O[C@H](CO)[C@H](O)C1O (some centres not stated)
[1]
  T/C: 100 % of control
[2]
  T/C: 56 % of control
[3]
  T/C: 55 % of control
[4]
  T/C: 47 % of control

## O=S1(=O)C=C(c2ccccc2)C(c2ccccc2)=C1
[5]
  T/C: 59 % of control
[6]
  T/C: 81 % of control
dose: 300.0 mg/kg/injection, schedule: Q04DX003 (sc), vehicle: saline with Tween-80
  T/C: 59 % of control
dose: 600.0 mg/kg/injection, schedule: Q04DX003 (sc), vehicle: saline with Tween-80
  T/C: 71 % of control

## CC1(C)CC23C4COC(=O)C2CCC1C3CC4=O (configuration not stated)
dose: 150.0 mg/kg/injection, schedule: Q04DX003 (sc), vehicle: DMSO
  T/C: 88 % of control
dose: 300.0 mg/kg/injection, schedule: Q04DX003 (sc), vehicle: DMSO
  T/C: 51 % of control
dose: 600.0 mg/kg/injection, schedule: Q04DX003 (sc), vehicle: DMSO
  T/C: 67 % of control
dose: 1200.0 mg/kg/injection, schedule: Q04DX003 (sc), vehicle: DMSO
  T/C: 63 % of control

## COC(=O)C(F)C(Br)C(=O)OC (configuration not stated)
dose: 18.75 mg/kg/injection, schedule: Q04DX003 (sc), vehicle: saline with Tween-80
  T/C: 91 % of control
[7]
  T/C: 111 % of control
[5]
  T/C: 90 % of control

## Cc1c(N)nc(C(CC(N)=O)NCC(N)C(N)=O)nc1C(=O)NC(C(=O)NC(C)C(O)C(C)C(=O)NC(C(=O)NCCc1nc(-c2nc(C(=O)NCCCNC(C)c3ccccc3)cs2)cs1)C(C)O)C(OC1OC(CO)C(O)C(O)C1OC1OC(CO)C(O)C(OC(N)=O)C1O)c1cnc[nH]1 (configuration not stated)
[8]
  T/C: 53 % of control
[9]
  T/C: 32 % of control
[10]
  T/C: 22 % of control and 28 % of control
[11]
  T/C: 39 % of control

## S=C(Nc1ccc(Cl)c(Cl)c1)N1c2ccccc2-n2cccc2C1c1cccnc1 (configuration not stated)
[12]
  T/C: 58 % of control
[13]
  T/C: 104 % of control
[14]
  T/C: 71 % of control
[15]
  T/C: 65 % of control

## N=c1nc2n(cc1F)[C@@H]1O[C@H](CO)[C@@H](O)[C@@H]1O2
dose: 300.0 mg/kg/injection, schedule: Q04DX003 (sc), vehicle: suspension in saline
  T/C: 102 % of control
dose: 600.0 mg/kg/injection, schedule: Q04DX003 (sc), vehicle: suspension in saline
  T/C: 57 % of control
dose: 1200.0 mg/kg/injection, schedule: Q04DX003 (sc), vehicle: suspension in saline
  T/C: 80 % of control
dose: 2400.0 mg/kg/injection, schedule: Q04DX003 (sc), vehicle: suspension in saline
  T/C: 87 % of control

## Cn1cnc([N+](=O)[O-])c1S(=O)(=O)NCN1CCOCC1
dose: 25.0 mg/kg/injection, schedule: Q01DX010 (sc), vehicle: Klucel (hydroxypropylcellulose) (HPC)
  T/C: 34 % of control
dose: 50.0 mg/kg/injection, schedule: Q01DX010 (sc), vehicle: Klucel (hydroxypropylcellulose) (HPC)
  T/C: 67 % of control
[16]
  T/C: 43 % of control

## COc1cc([C@@H]2c3cc4c(cc3[C@@H](OC3OC5CO[C@@H](c6cccs6)OC5C(O)C3O)[C@H]3COC(=O)[C@H]23)OCO4)cc(OC)c1O (some centres not stated)
dose: 1.0 mg/kg/injection, schedule: Q01DX010 (sc), vehicle: saline
  T/C: 54 % of control
[8]
  T/C: 78 % of control
[9]
  T/C: 62 % of control and 78 % of control
dose: 8.0 mg/kg/injection, schedule: Q01DX010 (sc), vehicle: saline
  T/C: 62 % of control and 78 % of control
[10]
  T/C: 89 % of control
[11]
  T/C: 39 % of control
dose: 33.0 mg/kg/injection, schedule: Q01DX010 (sc), vehicle: saline
  T/C: 109 % of control
dose: 132.0 mg/kg/injection, schedule: Q01DX010 (sc), vehicle: saline
  T/C: 56 % of control
dose: 264.0 mg/kg/injection, schedule: Q01DX010 (sc), vehicle: saline
  T/C: 88 % of control

## NC(=O)c1csc(C2OC(CO)C(O)C2O)n1 (configuration not stated)
dose: 200.0 mg/kg/injection, schedule: Q04DX003 (sc), vehicle: water
  T/C: 77 % of control
dose: 400.0 mg/kg/injection, schedule: Q04DX003 (sc), vehicle: water
  T/C: 64 % of control
dose: 800.0 mg/kg/injection, schedule: Q04DX003 (sc), vehicle: water
  T/C: 99 % of control
dose: 1600.0 mg/kg/injection, schedule: Q04DX003 (sc), vehicle: water
  T/C: 97 % of control

## CN=C(N)N/N=C(\C)c1ccc2oc3ccc(/C(C)=N/NC(N)=NC)cc3c2c1
[5]
  T/C: 89 % of control
[6]
  T/C: 65 % of control

## CCc1c(CC(=O)O)c2cc(C)ccc2n1Cc1ccc(Cl)cc1
[12]
  T/C: 123 % of control
[13]
  T/C: 82 % of control
[14]
  T/C: 92 % of control
[15]
  T/C: 50 % of control

## O=C(Nc1ccc(Cl)c(Cl)c1)Nc1c(Oc2ccc(Cl)c(Cl)c2)ccc(Cl)c1S(=O)(=O)O
[16]
  T/C: 43 % of control
dose: 200.0 mg/kg/injection, schedule: Q01DX010 (sc), vehicle: Klucel (hydroxypropylcellulose) (HPC)
  T/C: 50 % of control
dose: 400.0 mg/kg/injection, schedule: Q01DX010 (sc), vehicle: Klucel (hydroxypropylcellulose) (HPC)
  T/C: 69 % of control
dose: 800.0 mg/kg/injection, schedule: Q01DX010 (sc), vehicle: Klucel (hydroxypropylcellulose) (HPC)
  T/C: 60 % of control

## O=C1C=CC(n2cc(F)c(=O)[nH]c2=O)O1 (configuration not stated)
[17]
  T/C: 57 % of control
[18]
  T/C: 60 % of control
[19]
  T/C: 46 % of control

## C[C@@]12C(=O)OC(=O)[C@]1(C)[C@H]1CC[C@@H]2O1
dose: 1.25 mg/kg/injection, schedule: Q04DX003 (sc), vehicle: Klucel (hydroxypropylcellulose) (HPC)
  T/C: 113 % of control
dose: 2.5 mg/kg/injection, schedule: Q04DX003 (sc), vehicle: Klucel (hydroxypropylcellulose) (HPC)
  T/C: 86 % of control

## COc1nc(=O)n(C2C=CC(=O)O2)cc1F (configuration not stated)
[17]
  T/C: 66 % of control
[18]
  T/C: 54 % of control
[19]
  T/C: 37 % of control

## O=C(NO)c1cc(O)c(O)c(O)c1
dose: 200.0 mg/kg/injection, schedule: Q04DX003 (sc), vehicle: distilled water + Tween-80
  T/C: 66 % of control
dose: 400.0 mg/kg/injection, schedule: Q04DX003 (sc), vehicle: distilled water + Tween-80
  T/C: 87 % of control
dose: 800.0 mg/kg/injection, schedule: Q04DX003 (sc), vehicle: distilled water + Tween-80
  T/C: 100 % of control
dose: 1600.0 mg/kg/injection, schedule: Q04DX003 (sc), vehicle: distilled water + Tween-80
  T/C: 90 % of control

## CC1=CC2C(O)(CC(CO)=CC3C4C(C)(C)C4(OC(=O)c4ccccc4)C(OC(=O)c4ccccc4)C(C)C32O)C1=O (configuration not stated)
dose: 1.25 mg/kg/injection, schedule: Q04DX003 (sc), vehicle: saline with Tween-80
  T/C: 77 % of control
dose: 2.5 mg/kg/injection, schedule: Q04DX003 (sc), vehicle: saline with Tween-80
  T/C: 73 % of control
dose: 5.0 mg/kg/injection, schedule: Q04DX003 (sc), vehicle: saline with Tween-80
  T/C: 76 % of control
dose: 10.0 mg/kg/injection, schedule: Q04DX003 (sc), vehicle: saline with Tween-80
  T/C: 43 % of control

## C(CC1CO1)C1CO1 (configuration not stated)
dose: 25.0 mg/kg/injection, schedule: Q01DX010 (sc), vehicle: saline
  T/C: 104 % of control
dose: 50.0 mg/kg/injection, schedule: Q01DX010 (sc), vehicle: saline
  T/C: 64 % of control
dose: 100.0 mg/kg/injection, schedule: Q01DX010 (sc), vehicle: saline
  T/C: 42 % of control

## C=CCc1cn(C2CC(O)C(CO)O2)c(=O)[nH]c1=O (configuration not stated)
[1]
  T/C: 91 % of control
[2]
  T/C: 82 % of control
[3]
  T/C: 74 % of control
[4]
  T/C: 111 % of control

## Nc1nc(N)c2c(ccc3c2ccn3Cc2cccc([N+](=O)[O-])c2)n1
[7]
  T/C: 100 % of control
[5]
  T/C: 69 % of control
[6]
  T/C: 50 % of control
